Measurements: article PMC7442133, “Reduced treatment frequencies with bumped kinase inhibitor 1369 are effective against porcine cystoisosporosis” (International Journal for Parasitology: Drugs and Drug …, 2020)
Several values for one entry are separate records, joined by “and”; a condition that tells them apart may be missing. Equal values may be shown once. Entries after “also recorded” stand apart in the source; their conditions may differ.

Tests used:
[1] = parameters: species or system piglets; conditions: in vivo
Procedure: In experiment II, additional fecal samples were collected from piglets which shed oocysts after treatment with BKI 1369. Fecal DNA preparation was carried out by established procedures. PCR assays were used for the amplification of the genomic DNA fragments encoding CsCDPK1. PCR assays used primers upstream (166 and 91 base pairs of the start codon) and downstream (89 and 39 base pairs) of the CsCDPK1 stop codon fragment to generate templates for a subsequent nested run. Nested PCR amplification of the 5955 base pair fragment was achieved using the primer pair LIC_CsCDPK_Fwd: […] and LIC_CsCDPK_Rev: […]. PCR amplicons were cloned into TA TOPO 2 vectors (Invitrogen, Carlsbad, California, USA) and sequenced at GENEWIZ Inc. (Seattle, USA) to confirm the presence or absence of mutations that could affect drug sensitivity. Moreover, two piglets from each group were sacrificed at the end of the study (SD 29; 24 days after treatment) and tissue samples (liver, muscle, kidney, backfat, jejunum) were collected and processed similar to the fecal samples in experiment I, except that 20 nM propranolol was used as an internal standard instead of 100 μM, to determine residues of BKI 1369 and its metabolites.
Tissue and feces from vehicle control treated piglets were used as blanks or standards. Calibration curves for BKI 1369, BKI 1318, and BKI 1817 were prepared by adding 2 μL BKI in dimethylsulfoxide (DMSO) to 18 μL tissue or feces controls to generate nominal concentrations of 0.004, 0.008, 0.02, 0.04, 0.08, 0.2, 0.4, 0.8, 2, 5, 10, and 20 μM. Calibration curves were generated separately for each tissue type and feces.
5 μL of tissue homogenate curves and samples were added to tubes that contained 95 μL of 80:20 acetonitrile: water. As an internal standard, propranolol was added to each sample to a final concentration of 20 nM. Samples were dried to completion using a miVac Duo Concentrator (SP Scientific, Pennsylvania, USA) at 35 °C. Sample processing for feces was similar but utilized a slightly different process to concentrate the sample as explained in the methods. Dried Samples were sealed and shipped to the University of Washington for LC-MS/MS analysis.

C. suis (strain Wien-I) [2] = assay: Oocyst excretion of experimentally infected suckling piglets (autofluorescence, modified McMaster); type: in vivo, Cystoisospora suis; conditions: for Start of oocyst excretion (study day): controls started SD 8
[3] = Post-treatment observations for adverse events; type: in vivo, piglets
Procedure: For both experiments, post-treatment observations for any adverse events such as swelling/bleeding of the iron injection site, inability to stand, walk, suckle or other abnormal behavior, including dyspnoea, vomiting, limping, lateral recumbency, signs of pain, distress or neurological alterations ([Oldham, 1985]), were conducted under blinded conditions by a veterinarian at 2 h, 24 h and 48 h after treatment. In addition, all piglets were observed daily during the course of the studies to ensure good health, and any condition that required veterinary intervention was recorded and addressed.

C. suis (strain Wien-I) [4] = assay: Fecal score and diarrhea of experimentally infected suckling piglets; type: in vivo, Cystoisospora suis
[5] = Exp I group A: 1 × 20 mg/kg BW oral, SD 3 (0 dpi)
[6] = Exp I group B: 1 × 20 mg/kg BW oral, SD 5 (2 dpi)
[7] = Exp II group W: 1 × 20 mg/kg BW oral, SD 5 (2 dpi)
[8] = Exp II group X: 1 × 10 mg/kg BW oral, SD 5 (2 dpi)
[9] = Exp II group Y: 1 × 5 mg/kg BW oral, SD 5 (2 dpi)
[10] = single treatment 20 mg/kg BW 2 dpi
[11] = single treatment 20 mg/kg BW on the day of infection
[12] = Exp I group C: 2 × 20 mg/kg BW oral, SD 5 & SD 7 (2 & 4 dpi)

CCOc1ccc2cc(-c3nn(CC4CCNCC4)c4ncnc(N)c34)ccc2n1 [BKI 1318]
Residue in liver [1]: -Samples above LoQ BKI 1318: N/A -Samples above background, but below LoQ BKI 1318: liver from piglet 304 and muscle from piglet 302

CCOc1ccc2cc(-c3nn(CC4CCN(C)CC4)c4ncnc(N)c34)ccc2n1 [BKI 1369]
Quantifiable residue values, all tissue types [1]: below 0.2 μM | Residue in fat [1]: above background, but below LoQ | Residue in jejunum [1]: above background, but below LoQ | Start of oocyst excretion (study day) (C. suis (strain Wien-I) [2]; Exp I group A: 1 × 20 mg/kg BW day of infection): 11 SD | Mean AUC for OpG (C. suis (strain Wien-I) [2]; [5]): 4861.8 | Number of excretion days ± SD (mean duration of oocyst excretion) (C. suis (strain Wien-I) [2]; Exp I group A: 1 × 20 mg/kg BW oral, SD 3 (0 dpi), 20 mg/kg): 1 ± 1.6 days and 1 ± 1.56 days | Piglets that excreted oocysts (C. suis (strain Wien-I) [2]; Exp I group A: 1 × 20 mg/kg BW, day of infection): 50% | Number of piglets that excreted oocysts (C. suis (strain Wien-I) [2]; Exp I group B: 1 × 20 mg/kg BW 2 dpi, 11 piglets): two | Start of oocyst excretion (study day) (C. suis (strain Wien-I) [2]; Exp I group B: 1 × 20 mg/kg BW 2 dpi): 16 SD | Mean AUC for OpG (C. suis (strain Wien-I) [2]; [6]): 333 | Number of excretion days ± SD (C. suis (strain Wien-I) [2]; [6]): 0.45 ± 1.03 days | Oocyst excretion (in words) (C. suis (strain Wien-I) [2]; Exp I group C: two doses of 20 mg/kg BW at 2 and 4 dpi, 20 mg/kg): completely suppressed oocyst excretion | Number of piglets that excreted oocysts (C. suis (strain Wien-I) [2]; Exp II group W: 1 × 20 mg/kg BW 2 dpi, 10 piglets, excreted only once on SD 16): one | Mean AUC for OpG (C. suis (strain Wien-I) [2]; [7]): 99.9 | Number of excretion days ± SD (C. suis (strain Wien-I) [2]; [7]): 0.1 ± 0.32 days | Oocyst excretion (in words) (C. suis (strain Wien-I) [2]; Exp II group W: single dose of 20 mg/kg BW 2 dpi): effectively suppressed | Mean AUC for OpG (C. suis (strain Wien-I) [2]; [8]): 20129.85 | Number of excretion days ± SD (mean duration of oocyst excretion) (C. suis (strain Wien-I) [2]; Exp II group X: 1 × 10 mg/kg BW oral, SD 5 (2 dpi), 10 mg/kg): 1.3 ± 2.7 days and 1.3 ± 2.75 days | Piglets that excreted oocysts (C. suis (strain Wien-I) [2]; Exp II group X: 1 × 10 mg/kg BW, 2 dpi): 50% | Number of piglets that excreted oocysts (C. suis (strain Wien-I) [2]; Exp II group X: single dose of 10 mg/kg BW 2 dpi): 5 out of 10 | Mean AUC for OpG (C. suis (strain Wien-I) [2]; [9]): 56610 | Number of excretion days ± SD (mean duration of oocyst excretion) (C. suis (strain Wien-I) [2]; Exp II group Y: 1 × 5 mg/kg BW oral, SD 5 (2 dpi), 5 mg/kg): 3.6 ± 1.9 days and 3.6 ± 1.94 days | Piglets that excreted oocysts (C. suis (strain Wien-I) [2]; Exp II group Y: 1 × 5 mg/kg BW, 2 dpi): 90% | Control of parasitic shedding and diarrhea (in words) (C. suis (strain Wien-I) [2]; single application of 5 mg/kg BW 2 dpi): completely failed to control parasitic shedding and diarrhea | Piglets in which oocyst excretion was suppressed (C. suis (strain Wien-I) [2]; [10]): 82% | Reduction of quantitative oocyst excretion in those that shed oocysts (C. suis (strain Wien-I) [2]; [10]): 98.4% | Piglets in which oocyst excretion was suppressed (C. suis (strain Wien-I) [2]; [11]): 50% | Reduction of quantitative oocyst excretion in those that shed oocysts (C. suis (strain Wien-I) [2]; [11]): 95.2% | Minimal effective dose against cystoisosporosis (C. suis (strain Wien-I) [2]; single treatment 2 dpi, piglets): 10 mg/kg BW | Treatment-related adverse effects that required veterinary intervention ([3]; 5, 10 or 20 mg/kg BW, one or two oral doses, whole study period): No piglets showed treatment-related adverse effects; also recorded: without any adverse effects | Visible signs of toxicity, clinically relevant systemic or regional/local responses related to treatment ([3]; treated groups, both experiments): Neither visible signs of toxicity nor clinically relevant systemic or regional/local responses related to treatment were observed | % piglets with diarrhea at least once (C. suis (strain Wien-I) [4]; [5]): 60% | Number of diarrhea days ± SD (C. suis (strain Wien-I) [4]; [5]): 1.4 ± 1.71 days | % piglets with diarrhea at least once (C. suis (strain Wien-I) [4]; [6]): 18.18% | Number of diarrhea days ± SD (C. suis (strain Wien-I) [4]; [6]): 0.27 ± 0.65 days | % piglets with diarrhea at least once (C. suis (strain Wien-I) [4]; [12]): 27.27% | Number of diarrhea days ± SD (C. suis (strain Wien-I) [4]; [12]): 0.45 ± 0.93 days | Mean FS and diarrhea days compared to control piglets (in words) (C. suis (strain Wien-I) [4]; Exp I: single dose 20 mg/kg BW at 2 dpi): significantly lower mean FS and fewer diarrhea days | Effect on diarrhea (in words) (C. suis (strain Wien-I) [4]; Exp I: single dose of 20 mg/kg BW on the day of infection): failed to reduce occurrence of diarrhea | Mean FS and diarrhea days compared to control piglets (in words) (C. suis (strain Wien-I) [4]; Exp I: two doses 20 mg/kg BW at 2 and 4 dpi): significantly lower mean FS and fewer diarrhea days | % piglets with diarrhea at least once (C. suis (strain Wien-I) [4]; [7]): 10% | Number of diarrhea days ± SD (C. suis (strain Wien-I) [4]; [7]): 0.2 ± 0.63 days | % piglets with diarrhea at least once (C. suis (strain Wien-I) [4]; [8]): 40% | Number of diarrhea days ± SD (C. suis (strain Wien-I) [4]; [8]): 0.5 ± 0.70 days | % piglets with diarrhea at least once (C. suis (strain Wien-I) [4]; [9]): 77.80% | Number of diarrhea days ± SD (C. suis (strain Wien-I) [4]; [9]): 2.6 ± 1.88 days | Effect on diarrhea (in words) (C. suis (strain Wien-I) [4]; Exp II: 5 mg/kg BW at 2 dpi): completely failed to control diarrhea | Effect on diarrhea (in words) (C. suis (strain Wien-I) [4]; Exp II: 10 mg/kg BW at 2 dpi): effectively suppressed diarrhea | Effect on diarrhea (in words) (C. suis (strain Wien-I) [4]; Exp II: 20 mg/kg BW at 2 dpi): effectively suppressed diarrhea | Number of diarrhea days compared to control piglets (in words) (C. suis (strain Wien-I) [4]; irrespective of time points and frequencies of treatment): reduced number of diarrhea days
